Experimental findings from US9434725B2, “5-azaindazole compounds and methods of use” (priority 2012, dated 2016) are described below.

Where two headings read alike, the source gives them in different places.

One test deals with PIM3 (Homo sapiens (Human), UniProt Q86V86). In words: Pim kinase binding activity, Caliper LC3000 microfluidic peptide phosphorylation assay, PIM3. The format is biochemical. As to conditions: 10 μM ATP, 90 min, room temperature; read-out: PIM3 LC3K (KI). The essentials: (§1)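 Read-out is microfluidic electrophoretic separation of phosphorylated from unphosphorylated fluorescent Pim peptide, with Ki calculated from conversion. Reactions ran 90 min at room temperature in HEPES pH 7.2 containing MgCl2, Tween 20 and DTT, ended by EDTA-containing buffer.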

Test [1] relates to MM1.S (multiple myeloma) cells. In words: In vitro cell proliferation potency assay (Cell Titer Glo), MM1.S cells. The format is cell-based. As to conditions: Homo sapiens, MM1.S cells, 72 hours, read-out: Prolif MM1S ATP (EC50). As for the experimental part: (§2) BaF3 parental line was obtained from the DSMZ repository. BaF3 lines transfected with PIM1 or PIM2 were generated. Mouse IL-3 was purchased from R&D Systems. G418 was purchased from Clontech. Media for BaF3 parental line contained RPMI, 10% FBS, 2 mM L-Glutamine, 2 ng/mL mIL-3. Media for BaF3 PIM1 & 2 lines contained RPMI, 10% FBS, 2 mM L-Glutamine, […]. Media for MM1.S (multiple myeloma cells) line contained RPMI, 10% FBS, 2 mM L-Glutamine.
(§3) BaF3, a murine interleukin-3 dependent pro-B cell line, parental cells, BaF3 PIM1 cells, BaF3 PIM2 cells, and MM1.S (multiple myeloma) cells were seeded at 2 k/well, 5 k/well, 5 k/well, and 10 k/well respectively, in a 384-well plate, at 45 μL/well. Test compound was added at 5 μL/well. BaF3 cells (parental and transfected) were incubated overnight, while MM1.S cells were incubated for 72 hours at 37° C., 5% CO2. CELL TITER GLO® Reagent (Promega) was added at 50 μL/well, the plates were incubated for 30 minutes, and their luminescence read on an HT Analyst. IC50/EC50 values for the test compound were calculated.
(In general: In ATP-based viability assays light output follows the ATP content of the culture.)

The target of the next test is PIM2 (Homo sapiens (Human), UniProt Q9P1W9). Description: Pim kinase binding activity, Caliper LC3000 microfluidic peptide phosphorylation assay, PIM2. The conditions noted are these: 10 μM ATP, 90 min, room temperature; read-out: PIM2 LC3K (KI). The format is biochemical. The method, boiled down: as §1
The target of a further test is PIM1 (Homo sapiens (Human), UniProt P11309). Description: biochemical. The class given is biochemical. The conditions noted are these: 10 μM ATP, 90 min, room temperature; read-out: PIM1 LC3K (KI). The method, boiled down: as §1
For a further test, the system named is BaF3 PIM1 cells. Description: In vitro cell proliferation potency assay (Cell Titer Glo), BaF3 PIM1 cells. The class given is cell-based, murine. The conditions noted are these: Mus musculus, BaF3, BaF3 cells transfected with PIM1, incubated overnight; read-out: Prolif BaF3_PIM 1 (IC50). As for the experimental part: as §2, §3

PIM1, sequence (P11309 whole entry): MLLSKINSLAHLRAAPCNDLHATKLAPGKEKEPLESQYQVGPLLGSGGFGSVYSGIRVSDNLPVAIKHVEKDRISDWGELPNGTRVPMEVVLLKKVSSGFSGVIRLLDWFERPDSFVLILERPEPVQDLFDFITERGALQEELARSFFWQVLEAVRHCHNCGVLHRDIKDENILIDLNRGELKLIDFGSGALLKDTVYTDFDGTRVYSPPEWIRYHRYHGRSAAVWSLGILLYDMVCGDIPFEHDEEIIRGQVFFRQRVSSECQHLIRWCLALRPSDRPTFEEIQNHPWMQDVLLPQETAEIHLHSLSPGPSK
PIM2, sequence (Q9P1W9 whole entry): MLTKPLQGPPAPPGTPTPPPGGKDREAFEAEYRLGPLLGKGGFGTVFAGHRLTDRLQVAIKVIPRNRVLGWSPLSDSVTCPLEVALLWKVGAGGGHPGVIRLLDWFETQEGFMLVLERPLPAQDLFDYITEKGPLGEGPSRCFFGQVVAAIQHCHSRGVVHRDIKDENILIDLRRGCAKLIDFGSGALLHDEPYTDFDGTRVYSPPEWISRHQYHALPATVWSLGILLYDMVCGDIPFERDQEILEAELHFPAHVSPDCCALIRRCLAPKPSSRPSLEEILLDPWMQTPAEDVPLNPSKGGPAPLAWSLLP

For the compound `CCc1cncc(-c2cc3c(cn2)cnn3-c2cccc(N3CCNC[C@@H](O)C3)n2)c1` (single isomer, unassigned) [Compound 122], the values for the Ki at PIM3 and at PIM2 were 0.083 nM and 4.59 nM, respectively. Also, the EC50 (commonly the concentration needed to bring the measured effect to its halfway point) in test [1] (MM1.S, 72 h) came to 2700 nM.

For `Cc1cncc(-c2cc3c(cn2)cnn3-c2cccc(N3CC(N)CCC3C)n2)n1` (single isomer, unassigned) [Compound 182, 6-methyl-1-[6-[6-(6-methylpyrazin-2-yl)pyrazolo[4,3-c]pyridin-1-yl]-2-pyridyl]piperidin-3-amine], the EC50 in test [1] (MM1.S, 72 h) is 1900 nM.

Take `Cc1cncc(-c2cc3c(cn2)cnn3-c2cccc(N3CCCNCC3)n2)n1` [Compound 138, 1-[6-(1 4-diazepan-1-yl)-2-pyridyl]-6-(6-methylpyrazin-2-yl)pyrazolo[4,3-c]pyridine]: the EC50 in test [1] (MM1.S, 72 h) turned out to be 4600 nM. Besides, on PIM2, the Ki (commonly a dissociation constant, usually derived from enzyme kinetics or from competition with a known ligand) turned out to be 0.44 nM.

On to `Cc1cncc(-c2cc3c(cn2)cnn3-c2cccc(N3CCCNCC3)n2)c1` [Compound 141, 1-(6-(1,4-diazepan-1-yl)pyridin-2-yl)-6-(5-methylpyridin-3-yl)-1H-pyrazolo[4,3-c]pyridine], for which the results for the Ki on PIM3 and at PIM2 were 0.078 nM and 3.37 nM, respectively. For the same compound, the EC50 in test [1] (MM1.S, 72 h) turned out to be 5000 nM.

As to `c1cc(N2CCNCC2)nc(-n2ncc3cnc(-c4cnccn4)cc32)c1` [Compound 144, 1-(6-piperazin-1-yl-2-pyridyl)-6-pyrazin-2-yl-pyrazolo[4,3-c]pyridine], the Ki at PIM3 amounted to 0.05 nM; at PIM2 it was 1.16 nM. Besides, in test [1] (MM1.S, 72 h), the EC50 turned out to be 2600 nM.

`CCc1cncc(-c2cc3c(cn2)cnn3-c2cccc(N3CCCNCC3)n2)n1` [Compound 150, 1-[6-(1 4-diazepan-1-yl)-2-pyridyl]-6-(6-ethylpyrazin-2-yl)pyrazolo[4 3-c]pyridine]: the Ki worked out at 0.019 nM at PIM3 and 0.333 nM on PIM2. The half-maximal effective concentration (EC50) in test [1] turned out to be 1900 nM.

On to `CCn1cncc(-c2cc3c(cn2)cnn3-c2cccc(N3CCNCC3)n2)c1=O` [Compound 151, 3-ethyl-5-[1-(6-piperazin-1-yl-2-pyridyl)pyrazolo[4,3-c]pyridin-6-yl]pyrimidin-4-one], for which the figures for the Ki at PIM3 and on PIM2 were 0.081 nM and 3.32 nM, respectively. The EC50 in test [1] (MM1.S, 72 h) stood at 8600 nM.

For the compound `FCCn1cc(-c2cc3c(cn2)cnn3-c2cccc(N3CCCNCC3)n2)cn1` [Compound 153, 1-(6-(1,4-Diazepan-1-yl)pyridin-2-yl)-6-(1-(2-fluoroethyl)-1H-pyrazol-4-yl)-1H-pyrazolo[4,3-c]pyridine], the inhibition constant (Ki) on PIM3 worked out at 0.085 nM; on PIM2 it was 1.37 nM. The EC50 in test [1] (MM1.S, 72 h) amounted to 2500 nM.

Regarding `FC(F)(F)Cn1cc(-c2cc3c(cn2)cnn3-c2cccc(N3CCCNCC3)n2)cn1` [Compound 154, 1-(6-(1,4-Diazepan-1-yl)pyridin-2-yl)-6-(1-(2,2,2-trifluoroethyl)-1H-pyrazol-4-yl)-1H-pyrazolo[4,3-c]pyridine], the Ki on PIM3 was 0.175 nM; on PIM2, 1.01 nM. The EC50 in test [1] (MM1.S, 72 h) turned out to be 2300 nM.

For the compound `N#CCn1cc(-c2cc3c(cn2)cnn3-c2cccc(N3CCCNCC3)n2)cn1` [Compound 155, 2-(4-(1-(6-(1,4-Diazepan-1-yl)pyridin-2-yl)-1H-pyrazolo[4,3-c]pyridin-6-yl)-1H-pyrazol-1-yl)acetonitrile], the Ki was 0.109 nM on PIM3 and 1.49 nM on PIM2. In test [1] (MM1.S, 72 h), the EC50 turned out to be 3500 nM.

As to `Cc1cncc(-c2cc3c(cn2)cnn3-c2cccc(N3CC[C@@H](N)C3)n2)n1` [Compound 168, (3R)-1-[6-[6-(6-methylpyrazin-2-yl)pyrazolo[4,3-c]pyridin-1-yl]-2-pyridyl]pyrrolidin-3-amine], the Ki on PIM3 amounted to 0.806 nM; on PIM2 it was 4.74 nM. In test [1] (MM1.S, 72 h), the EC50 is 5000 nM.

`COc1ccc(-n2ncc3cnc(-c4cncc(C)n4)cc32)nc1N1CCNCC(O)C1` (stereo not shown) [Compound 207, 1-(3-methoxy-6-(6-(6-methylpyrazin-2-yl)-1H-pyrazolo[4,3-c]pyridin-1-yl)pyridin-2-yl)-1,4-diazepan-6-ol]: the inhibition constant Ki on PIM3 came out at 0.093 nM; on PIM1 it was 0.182 nM; on PIM2, 3.67 nM. Also, the IC50 (commonly the concentration that gives 50% inhibition) with BaF3 PIM1 cells was determined as 1500 nM.

As to `Cc1nc(-c2cc3c(cn2)cnn3-c2cccc(N3CCC[C@H](N)C3)n2)cnc1N` [Compound 209, (S)-5-(1-(6-(3-aminopiperidin-1-yl)pyridin-2-yl)-1H-pyrazolo[4,3-c]pyridin-6-yl)-3-methylpyrazin-2-amine], the Ki on PIM3 was 0.011 nM; on PIM1 it was 0.045 nM; on PIM2, 0.575 nM. The IC50 in the test with BaF3 PIM1 cells is 682 nM.

In the case of `Cc1cncc(-c2cc3c(cn2)cnn3-c2cccc(N3CCC4(CNC4)C3)n2)n1` [Compound 214, 1-[6-(2 6-diazaspiro[3.4]octan-6-yl)-2-pyridyl]-6-(6-methylpyrazin-2-yl)pyrazolo[4,3-c]pyridine], the Ki on PIM3 turned out to be 0.199 nM; on PIM1, 0.385 nM; on PIM2, 2.65 nM. For the same compound, the IC50 in the test with BaF3 PIM1 cells came out at 1000 nM.

Turning to `Cc1cncc(-c2cc3c(cn2)cnn3-c2cccc(N3CCC4(CCCN4)CC3)n2)n1` [Compound 216, 8-[6-[6-(6-methylpyrazin-2-yl)pyrazolo[4,3-c]pyridin-1-yl]-2-pyridyl]-1 8-diazaspiro[4.5]decane], the Ki at PIM3 worked out at 0.094 nM; on PIM1 it was 0.223 nM; at PIM2, 2.95 nM. Further, in the test on BaF3 PIM1 cells, the IC50 turned out to be 715 nM.

As for `Cc1cncc(-c2cc3c(cn2)cnn3-c2cnc(C)c(N3CCC[C@H](N)C3)n2)n1` [Compound 228, (3S)-1-[3-methyl-6-[6-(6-methylpyrazin-2-yl)pyrazolo[4,3-c]pyridin-1-yl]pyrazin-2-yl]piperidin-3-amine], the Ki on PIM3 came to 0.047 nM; at PIM1, 0.074 nM; on PIM2 it was 0.724 nM. For the same compound, the IC50 with BaF3 PIM1 cells is 778 nM.

In the case of `OCC(O)c1cncc(-c2cc3c(cn2)cnn3-c2cccc(N3CCNCC3)n2)n1` (stereo not shown) [Compound 277, 1-(6-(1-(6-(piperazin-1-yl)pyridin-2-yl)-1H-pyrazolo[4,3-c]pyridin-6-yl)pyrazin-2-yl)ethane-1,2-diol], in test [1] (MM1.S, 72 h), the EC50 is 4200 nM. Also, the Ki at PIM2 amounted to 4.67 nM.

For `OCCNc1cncc(-c2cc3c(cn2)cnn3-c2cccc(N3CCNCC3)n2)n1` [Compound 282, 2-[[6-[1-(6-piperazin-1-yl-2-pyridyl)pyrazolo[4,3-c]pyridin-6-yl]pyrazin-2-yl]amino]ethanol], the Ki turned out to be 0.021 nM at PIM3 and 0.357 nM on PIM2. The EC50 in test [1] (MM1.S, 72 h) was found to be 9700 nM.

Regarding `O[C@H]1CCC[C@@H]1Nc1cncc(-c2cc3c(cn2)cnn3-c2cccc(N3CCNCC3)n2)n1` [Compound 283], the Ki on PIM3 was 0.182 nM; at PIM2, 8.05 nM. The EC50 in test [1] (MM1.S, 72 h) turned out to be 8900 nM.

`NCCOc1cncc(-c2cc3c(cn2)cnn3-c2cccc(N3CCNCC3)n2)n1` [Compound 286, 2-((6-(1-(6-(piperazin-1-yl)pyridin-2-yl)-1H-pyrazolo[4,3-c]pyridin-6-yl)pyrazin-2-yl)oxy)ethanamine]: the inhibitory constant (Ki) at PIM3 was 0.092 nM. Besides, in test [1] (MM1.S, 72 h), the EC50 turned out to be 8200 nM.

Turning to `Cc1cncc(-c2cc3c(cn2)cnn3-c2cccc(N3CCC[C@@H](O)C3)n2)n1` [Compound 298, (R)-1-(6-(6-(6-methylpyrazin-2-yl)-1H-pyrazolo[4,3-c]pyridin-1-yl)pyridin-2-yl)piperidin-3-ol], the Ki at PIM3 is 0.396 nM; on PIM1, 0.854 nM; at PIM2, 2.68 nM. For the same compound, in the test with BaF3 PIM1 cells, the IC50 amounted to 1600 nM.

As to `Cc1cncc(-c2cc3c(cn2)cnn3-c2cccc(N3CCC[C@H](O)C3)n2)n1` [Compound 299, (S)-1-(6-(6-(6-methylpyrazin-2-yl)-1H-pyrazolo[4,3-c]pyridin-1-yl)pyridin-2-yl)piperidin-3-ol], the Ki on PIM3 came out at 0.248 nM; at PIM1, 0.419 nM; on PIM2 it was 4.17 nM. In addition, the 50% inhibitory concentration (IC50) in the test with BaF3 PIM1 cells amounted to 1600 nM.

On to `OCC#Cc1cncc(-c2cc3c(cn2)cnn3-c2cccc(N3CCNCC3)n2)n1` [Compound 300, 3-(6-(1-(6-(piperazin-1-yl)pyridin-2-yl)-1H-pyrazolo[4,3-c]pyridin-6-yl)pyrazin-2-yl)prop-2-yn-1-ol], for which the values for the Ki on PIM3 and at PIM2 were 0.032 nM and 0.228 nM, respectively. For the same compound, the EC50 in test [1] (MM1.S, 72 h) was determined as 2400 nM.

In the case of `FC1CCNCC1c1cccc(-n2ncc3cnc(-c4cnn(CC(F)(F)F)c4)cc32)n1` (stereo not shown) [Compound 306, 1-(6-(4-fluoropiperidin-3-yl)pyridin-2-yl)-6-(1-(2,2,2-trifluoroethyl)-1H-pyrazol-4-yl)-1H-pyrazolo[4,3-c]pyridine], at PIM3, the Ki turned out to be 0.125 nM. Moreover, the EC50 in test [1] (MM1.S, 72 h) is 1700 nM.
